Source: the supplement of paper PMC10307832

How the values were obtained:
Assay in all cases: relative viability (nuclei count vs DMSO), 5 days (fraction); higher = more cells survive
Lapatinib + Foretinib = compound: CS(=O)(=O)CCNCc1ccc(-c2ccc3ncnc(Nc4ccc(OCc5cccc(F)c5)c(Cl)c4)c3c2)o1 [Lapatinib] + COc1cc2c(Oc3ccc(NC(=O)C4(C(=O)Nc5ccc(F)cc5)CC4)cc3F)ccnc2cc1OCCCN1CCOCC1 [Foretinib] (partner 0.25 µM)
How it was run: (§1)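 Each reported value is a median over duplicate plates. It expresses relative viability: treated-well nuclei count divided by vehicle-well nuclei count. Lung cancer cell lines in 1536-well plates were dosed by pin tool a day after seeding, alone with one drug or with a fixed anchor-drug dose plus five library-drug doses (not always all listed) in √10 steps, and nuclei were counted after 5 days.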

Lapatinib + AZD7762 = compound: CS(=O)(=O)CCNCc1ccc(-c2ccc3ncnc(Nc4ccc(OCc5cccc(F)c5)c(Cl)c4)c3c2)o1 [Lapatinib] + NC(=O)Nc1cc(-c2cccc(F)c2)sc1C(=O)N[C@H]1CCCNC1 [AZD7762] (partner 0.2 µM)
How it was run: as §1

Wnt-C59 + Navitoclax = compound: CC1=NC=CC(=C1)C2=CC=C(C=C2)CC(=O)NC3=CC=C(C=C3)C4=CN=CC=C4 [Wnt-C59] + CC1(C)CCC(c2ccc(Cl)cc2)=C(CN2CCN(c3ccc(C(=O)NS(=O)(=O)c4ccc(N[C@H](CCN5CCOCC5)CSc5ccccc5)c(S(=O)(=O)C(F)(F)F)c4)cc3)CC2)C1 [Navitoclax] (partner 0.5 µM)
How it was run: as §1

Lapatinib + Alpelisib = compound: CS(=O)(=O)CCNCc1ccc(-c2ccc3ncnc(Nc4ccc(OCc5cccc(F)c5)c(Cl)c4)c3c2)o1 [Lapatinib] + Cc1nc(NC(=O)N2CCC[C@H]2C(N)=O)sc1-c1ccnc(C(C)(C)C(F)(F)F)c1 [Alpelisib] (partner 2 µM)
How it was run: as §1

| Cell Line | relative viability (Lapatinib + Foretinib; first compound 0.02 µM) | relative viability (Lapatinib + Foretinib; first compound 0.06325 µM) | relative viability (Lapatinib + Foretinib; first compound 0.2 µM) | relative viability (Lapatinib + Foretinib; first compound 0.6325 µM) | relative viability (Lapatinib + Foretinib; first compound 2 µM) | relative viability (Lapatinib + AZD7762; first compound 0.02 µM) | relative viability (Lapatinib + AZD7762; first compound 0.06325 µM) | relative viability (Lapatinib + AZD7762; first compound 0.2 µM) | relative viability (Lapatinib + AZD7762; first compound 0.6325 µM) | relative viability (Lapatinib + AZD7762; first compound 2 µM) | relative viability (Wnt-C59 + Navitoclax; first compound 0.001 µM) | relative viability (Wnt-C59 + Navitoclax; first compound 0.01 µM) | relative viability (Wnt-C59 + Navitoclax; first compound 0.03162 µM) | relative viability (Wnt-C59 + Navitoclax; first compound 0.1 µM) | relative viability (Lapatinib + Alpelisib; first compound 0.02 µM) | relative viability (Lapatinib + Alpelisib; first compound 0.06325 µM) | relative viability (Lapatinib + Alpelisib; first compound 0.2 µM) | relative viability (Lapatinib + Alpelisib; first compound 0.6325 µM) | relative viability (Lapatinib + Alpelisib; first compound 2 µM) |
| --- | --- | --- | --- | --- | --- | --- | --- | --- | --- | --- | --- | --- | --- | --- | --- | --- | --- | --- | --- |
| NCI-H1755 | 0.866 | 0.865 | 0.898 | 0.896 | 0.892 | 0.449 | 0.402 | 0.371 | 0.433 | 0.541 | 0.983 | 0.977 | 1.01 | 1.02 | 0.906 | 0.873 | 0.915 | 0.888 | 0.789 |
| EKVX | 0.202 | 0.738 | 0.822 | 0.581 | 0.201 | – | 0.518 | 0.693 | 0.708 | 0.663 | 0.991 | 0.87 | 0.896 | 0.788 | 0.869 | 0.675 | 0.845 | 0.575 | 0.212 |
| A-427 | – | 0.905 | 1.1 | 1.08 | 0.859 | 0.709 | 0.658 | 0.745 | 0.793 | 0.681 | 0.925 | 0.9 | 0.943 | 1 | – | 1.04 | 1.1 | 1.07 | 1.04 |
| NCI-H1993 | 0.691 | – | 0.75 | 0.71 | 0.762 | 0.615 | – | 0.86 | 0.499 | 0.455 | 1.04 | 0.82 | 1.09 | 0.972 | 0.683 | – | 0.721 | 0.684 | 0.665 |
| NCI-H1651 | 0.716 | 0.776 | 0.764 | 0.695 | 0.611 | 0.468 | 0.451 | 0.337 | 0.41 | 0.402 | 1.07 | 1.02 | 1.11 | 0.955 | 0.919 | 0.827 | 0.897 | 0.828 | 0.932 |
| LXF-289 | 0.996 | 0.953 | 0.967 | 0.948 | 0.851 | 1.02 | 1.09 | 1.05 | 1.13 | 0.957 | 0.999 | 0.912 | 0.929 | 0.948 | 0.987 | 1.04 | 1.06 | 0.987 | 0.922 |
| NCI-H23 | – | – | 0.908 | 0.958 | 0.898 | – | – | 0.216 | 0.232 | 0.154 | 0.723 | 0.775 | 1.04 | 0.805 | – | – | 0.737 | 0.719 | 0.521 |
